This passage reports melting point results from patent US20070066615A1, “Heterocyclic compounds” (BAYER HEATHCARE AG, priority 2003, published 2007).

What is called melting point is the temperature of the solid-liquid transition.

`O=C(NCC1CN(c2ccc(N3CCCC3=O)cc2)C(=O)CO1)c1ccc(Cl)s1` (stereo not shown) [Example 4, 5-Chloro-N-({5-oxo-4-[4-(2-oxo-1-pyrrolidinyl)phenyl]-2-morpholinyl}methyl)-2-thiophenecarboxamide]: the melting point was 201 °C (dec.).
